This note sets out measurements from ChEMBL document CHEMBL5385931, “Microascones, Decahydrofluorene-Class Alkaloids from the Marine-Derived Fungus Microascus sp. SCSIO 41821” (J Nat Prod, 2024).

Molecules are shown by their SMILES. Values after ≈ are worked out from the molar mass of the structure shown.

In assay [1] the target is T1, Tyrosine-protein phosphatase non-receptor type 1 (Homo sapiens, UniProt P18031).
T1 sequence (P18031 whole entry): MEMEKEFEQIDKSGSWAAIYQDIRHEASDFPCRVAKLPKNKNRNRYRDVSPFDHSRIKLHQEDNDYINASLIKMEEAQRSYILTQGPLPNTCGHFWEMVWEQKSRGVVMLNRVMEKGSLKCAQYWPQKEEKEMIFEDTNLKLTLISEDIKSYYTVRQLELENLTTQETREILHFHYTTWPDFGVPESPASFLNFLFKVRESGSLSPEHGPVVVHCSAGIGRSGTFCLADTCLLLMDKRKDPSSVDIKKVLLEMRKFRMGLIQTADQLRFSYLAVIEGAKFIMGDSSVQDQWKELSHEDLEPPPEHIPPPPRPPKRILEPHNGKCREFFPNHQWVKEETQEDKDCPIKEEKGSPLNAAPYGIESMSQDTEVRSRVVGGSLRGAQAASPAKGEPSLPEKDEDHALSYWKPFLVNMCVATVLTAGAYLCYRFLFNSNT
The assay is described as follows: Inhibition of human PTP1B.

In assay [2] the target is T2, M-phase inducer phosphatase 2 (Homo sapiens, UniProt P30305).
T2 sequence (P30305 whole entry): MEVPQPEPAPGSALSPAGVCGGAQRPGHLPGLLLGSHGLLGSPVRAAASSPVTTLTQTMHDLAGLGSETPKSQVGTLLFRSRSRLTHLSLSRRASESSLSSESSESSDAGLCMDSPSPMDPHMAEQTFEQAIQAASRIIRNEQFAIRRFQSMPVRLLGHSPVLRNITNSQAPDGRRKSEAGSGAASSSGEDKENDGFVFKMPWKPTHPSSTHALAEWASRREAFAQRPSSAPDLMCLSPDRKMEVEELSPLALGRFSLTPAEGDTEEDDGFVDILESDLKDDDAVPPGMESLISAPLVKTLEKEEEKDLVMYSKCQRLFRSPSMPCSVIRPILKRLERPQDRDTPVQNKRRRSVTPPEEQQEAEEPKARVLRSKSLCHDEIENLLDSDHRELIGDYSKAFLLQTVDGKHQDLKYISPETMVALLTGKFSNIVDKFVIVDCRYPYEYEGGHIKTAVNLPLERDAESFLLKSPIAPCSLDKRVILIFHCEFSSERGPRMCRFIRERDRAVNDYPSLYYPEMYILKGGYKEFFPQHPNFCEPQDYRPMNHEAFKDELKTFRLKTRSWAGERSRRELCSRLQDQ
The assay is described as follows: Inhibition of human CDC25B.

For assay [3], the target named is Receptor-type tyrosine-protein phosphatase F (Homo sapiens, UniProt P10586). The assay is described as follows: Inhibition of human LAR.
For assay [4], the target named is Receptor-type tyrosine-protein phosphatase S (Homo sapiens, UniProt Q13332). The assay is described as follows: Inhibition of human PTPsigma.
Assay [5] deals with Dual specificity protein phosphatase 3 (Homo sapiens, UniProt P51452). The assay is described as follows: Inhibition of human VHR.
In assay [6] the test system is NCI-H1975. The assay is described as follows: Cytotoxicity against human NCI-H1975 cells assessed as cell growth inhibition by CCK8 assay. (Formazan colour is commonly taken as a measure of viable cells.)
The test system of assay [7] is HepG2. The assay is described as follows: Cytotoxicity against human HepG2 cells assessed as cell growth inhibition by CCK8 assay.
Assay [8] has as its system Staphylococcus aureus. The assay is described as follows: Antibacterial activity against Staphylococcus aureus ATCC 6538 assessed as bacterial growth inhibition by broth microdilution method. It counts as functional.
In assay [9] the test system is Staphylococcus aureus. The assay is described as follows: Antibacterial activity against methicillin-resistant Staphylococcus aureus SC41993 assessed as bacterial growth inhibition by broth microdilution method. It counts as functional. (In general: In broth dilution the organism is exposed to a series of concentrations in liquid medium.)
Assay [10] has as its system Escherichia coli. The assay is described as follows: Antibacterial activity against Escherichia coli ATCC 25922 assessed as bacterial growth inhibition by broth microdilution method. Format: functional.
In assay [11] the test system is Bacillus subtilis. The assay is described as follows: Antibacterial activity against Bacillus subtilis BS01 assessed as bacterial growth inhibition by broth microdilution method. It counts as functional.
Assay [12] concerns Streptococcus agalactiae. The assay is described as follows: Antibacterial activity against Streptococcus agalactiae ATCC 13813 assessed as bacterial growth inhibition by broth microdilution method. Format: functional.
Assay [13] relates to Bacillus amyloliquefaciens. The assay is described as follows: Antibacterial activity against Bacillus amyloliquefaciens GDMCC 60233 assessed as bacterial growth inhibition by broth microdilution method. Format: functional.
Assay [14] relates to Streptococcus iniae. The assay is described as follows: Antibacterial activity against Streptococcus iniae SC41992 assessed as bacterial growth inhibition by broth microdilution method. Format: functional.

Sequence of Dual specificity protein phosphatase 3 (P51452 whole entry): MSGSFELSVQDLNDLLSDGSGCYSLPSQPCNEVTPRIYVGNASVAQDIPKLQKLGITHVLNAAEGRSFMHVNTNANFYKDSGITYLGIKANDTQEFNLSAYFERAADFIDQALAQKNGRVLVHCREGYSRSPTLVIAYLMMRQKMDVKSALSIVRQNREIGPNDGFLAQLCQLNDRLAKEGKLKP
Sequence of Receptor-type tyrosine-protein phosphatase F (P10586 whole entry): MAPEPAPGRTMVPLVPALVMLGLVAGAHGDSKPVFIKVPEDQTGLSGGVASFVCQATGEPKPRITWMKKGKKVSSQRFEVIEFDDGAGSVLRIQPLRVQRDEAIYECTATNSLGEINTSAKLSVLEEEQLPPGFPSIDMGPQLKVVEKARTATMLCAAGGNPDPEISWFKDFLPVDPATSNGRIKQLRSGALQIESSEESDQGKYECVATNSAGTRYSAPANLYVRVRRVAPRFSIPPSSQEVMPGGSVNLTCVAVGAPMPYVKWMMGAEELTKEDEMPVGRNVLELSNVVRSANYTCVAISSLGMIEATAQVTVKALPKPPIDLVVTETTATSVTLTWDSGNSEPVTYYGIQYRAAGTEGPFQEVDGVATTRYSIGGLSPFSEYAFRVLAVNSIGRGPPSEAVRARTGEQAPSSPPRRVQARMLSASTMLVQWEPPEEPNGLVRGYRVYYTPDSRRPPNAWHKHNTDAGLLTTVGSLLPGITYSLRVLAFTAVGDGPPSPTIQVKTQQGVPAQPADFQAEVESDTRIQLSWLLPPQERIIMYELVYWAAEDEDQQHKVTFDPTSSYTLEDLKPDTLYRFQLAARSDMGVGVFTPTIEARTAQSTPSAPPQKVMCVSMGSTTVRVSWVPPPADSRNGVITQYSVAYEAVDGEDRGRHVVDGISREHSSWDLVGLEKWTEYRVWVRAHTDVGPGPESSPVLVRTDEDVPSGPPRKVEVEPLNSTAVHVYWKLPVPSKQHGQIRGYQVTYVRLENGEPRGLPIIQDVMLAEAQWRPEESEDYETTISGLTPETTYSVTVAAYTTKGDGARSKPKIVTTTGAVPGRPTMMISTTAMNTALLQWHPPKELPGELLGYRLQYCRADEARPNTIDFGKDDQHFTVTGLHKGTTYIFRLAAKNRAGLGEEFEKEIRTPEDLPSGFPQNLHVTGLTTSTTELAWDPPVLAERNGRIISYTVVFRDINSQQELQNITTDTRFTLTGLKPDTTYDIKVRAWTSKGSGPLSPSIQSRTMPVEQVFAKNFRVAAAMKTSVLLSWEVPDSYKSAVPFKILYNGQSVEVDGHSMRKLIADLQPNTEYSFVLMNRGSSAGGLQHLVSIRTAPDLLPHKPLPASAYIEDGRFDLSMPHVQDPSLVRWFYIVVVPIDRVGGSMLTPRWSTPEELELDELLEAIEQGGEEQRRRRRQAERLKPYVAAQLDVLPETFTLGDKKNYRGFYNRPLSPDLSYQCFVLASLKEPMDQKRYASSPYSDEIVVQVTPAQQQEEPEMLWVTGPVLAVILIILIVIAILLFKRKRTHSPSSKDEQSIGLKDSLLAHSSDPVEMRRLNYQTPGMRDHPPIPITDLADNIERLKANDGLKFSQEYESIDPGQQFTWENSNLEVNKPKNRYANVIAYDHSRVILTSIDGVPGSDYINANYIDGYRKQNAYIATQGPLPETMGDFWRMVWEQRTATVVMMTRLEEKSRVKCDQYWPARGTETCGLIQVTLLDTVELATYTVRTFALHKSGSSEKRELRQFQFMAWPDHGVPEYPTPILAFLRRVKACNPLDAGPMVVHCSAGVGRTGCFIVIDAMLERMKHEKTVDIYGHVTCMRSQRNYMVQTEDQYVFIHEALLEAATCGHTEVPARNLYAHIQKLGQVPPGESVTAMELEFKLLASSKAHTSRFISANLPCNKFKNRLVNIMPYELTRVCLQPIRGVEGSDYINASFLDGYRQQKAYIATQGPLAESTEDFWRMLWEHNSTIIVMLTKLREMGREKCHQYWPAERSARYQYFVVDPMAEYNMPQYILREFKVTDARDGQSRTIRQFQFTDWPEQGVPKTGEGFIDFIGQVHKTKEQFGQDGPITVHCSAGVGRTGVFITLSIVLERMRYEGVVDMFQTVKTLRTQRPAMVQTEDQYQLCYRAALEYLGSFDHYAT
Sequence of Receptor-type tyrosine-protein phosphatase S (Q13332 whole entry): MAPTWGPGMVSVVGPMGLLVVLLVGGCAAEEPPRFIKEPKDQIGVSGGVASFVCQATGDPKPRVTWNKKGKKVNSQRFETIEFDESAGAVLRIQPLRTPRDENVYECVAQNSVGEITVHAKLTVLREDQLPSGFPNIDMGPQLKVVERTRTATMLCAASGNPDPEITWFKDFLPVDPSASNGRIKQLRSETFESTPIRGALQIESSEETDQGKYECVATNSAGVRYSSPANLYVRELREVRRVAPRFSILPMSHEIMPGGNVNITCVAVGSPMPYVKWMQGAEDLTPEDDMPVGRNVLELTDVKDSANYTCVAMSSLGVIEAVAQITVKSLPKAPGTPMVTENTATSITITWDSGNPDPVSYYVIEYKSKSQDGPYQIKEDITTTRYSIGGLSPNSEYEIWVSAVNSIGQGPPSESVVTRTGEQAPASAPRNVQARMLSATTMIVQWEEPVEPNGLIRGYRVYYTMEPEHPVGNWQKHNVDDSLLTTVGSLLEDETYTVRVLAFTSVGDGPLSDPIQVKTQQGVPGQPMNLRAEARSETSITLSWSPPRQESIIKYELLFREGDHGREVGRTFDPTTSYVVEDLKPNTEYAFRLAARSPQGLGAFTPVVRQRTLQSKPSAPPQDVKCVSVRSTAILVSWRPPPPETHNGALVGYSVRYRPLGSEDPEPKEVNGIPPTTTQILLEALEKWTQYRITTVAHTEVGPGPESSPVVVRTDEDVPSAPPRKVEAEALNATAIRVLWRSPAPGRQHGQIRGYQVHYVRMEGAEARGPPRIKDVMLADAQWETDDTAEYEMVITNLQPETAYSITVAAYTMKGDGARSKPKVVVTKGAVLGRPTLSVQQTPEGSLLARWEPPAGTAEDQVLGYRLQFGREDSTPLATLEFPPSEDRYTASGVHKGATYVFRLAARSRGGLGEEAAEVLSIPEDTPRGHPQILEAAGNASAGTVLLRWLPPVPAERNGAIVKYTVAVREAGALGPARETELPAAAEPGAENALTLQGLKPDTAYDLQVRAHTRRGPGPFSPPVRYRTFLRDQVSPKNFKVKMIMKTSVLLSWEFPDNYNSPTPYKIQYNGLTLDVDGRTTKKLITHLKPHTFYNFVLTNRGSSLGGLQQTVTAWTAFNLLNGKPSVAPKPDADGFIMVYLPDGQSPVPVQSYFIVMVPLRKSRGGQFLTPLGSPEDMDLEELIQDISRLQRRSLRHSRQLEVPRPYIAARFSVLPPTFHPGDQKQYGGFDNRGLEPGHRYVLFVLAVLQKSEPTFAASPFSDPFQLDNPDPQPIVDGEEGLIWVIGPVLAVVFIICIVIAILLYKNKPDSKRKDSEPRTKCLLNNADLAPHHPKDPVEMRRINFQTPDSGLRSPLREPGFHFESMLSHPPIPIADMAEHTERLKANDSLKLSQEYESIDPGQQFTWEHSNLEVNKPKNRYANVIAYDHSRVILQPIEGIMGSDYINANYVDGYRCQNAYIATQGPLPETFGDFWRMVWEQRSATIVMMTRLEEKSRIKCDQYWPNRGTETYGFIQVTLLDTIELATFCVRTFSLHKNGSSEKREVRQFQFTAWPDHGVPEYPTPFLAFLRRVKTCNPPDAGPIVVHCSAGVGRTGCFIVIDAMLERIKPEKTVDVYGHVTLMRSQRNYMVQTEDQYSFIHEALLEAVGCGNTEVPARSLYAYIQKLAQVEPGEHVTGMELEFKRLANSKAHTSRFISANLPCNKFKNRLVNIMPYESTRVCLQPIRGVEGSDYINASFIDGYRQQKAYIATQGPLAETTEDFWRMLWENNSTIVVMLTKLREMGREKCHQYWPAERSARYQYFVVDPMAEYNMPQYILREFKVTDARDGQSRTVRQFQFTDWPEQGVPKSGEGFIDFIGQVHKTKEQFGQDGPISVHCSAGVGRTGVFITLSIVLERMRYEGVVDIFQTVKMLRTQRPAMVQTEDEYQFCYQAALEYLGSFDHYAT

A word on the IC50: it is the concentration that gives 50% inhibition. Usually MIC stands for the lowest concentration found to suppress growth. For `CC1=C[C@@]2(C)[C@@H]3C(=O)[C@@]45C(=O)N[C@@](O)(Cc6ccc(cc6)O[C@@H]6[C@H]7[C@@H](C[C@H](CO)C[C@@H]7C)[C@H]1[C@H]63)[C@H]4CC=C(C)[C@@H]25`, the IC50 was more than 200 µM in assay [1]; more than 200 µM in [2]; more than 200 µM in assay [3]; more than 200 µM in [4]; more than 200 µM in assay [5]; 58 µM in assay [6]. For the same compound, in [7], the half-maximal inhibitory concentration (IC50) was more than 80 µM. In addition, the MIC is more than 100 µg/mL in assay [8]; more than 100 µg/mL in assay [9]; 100 µg/mL (≈ 184 µM) in assay [10]; 100 µg/mL (≈ 184 µM) in [11]; more than 100 µg/mL in assay [12]; more than 100 µg/mL in assay [13]. In addition, the MIC in assay [14] was 100 µg/mL (≈ 184 µM).
Consider `C=C/C(C)=C/[C@]1(C)C=C(C)[C@H]2[C@@H]3C[C@H](C)C[C@H](C)[C@H]3[C@H]3Oc4ccc(cc4)C[C@@H]4C(=O)NC(=O)[C@H]4C(=O)[C@@H]1[C@@H]32`, for which the IC50 in assay [6] is 67 µM; in [7], more than 80 µM. Further, the minimal inhibitory concentration (MIC) in assay [8] is more than 100 µg/mL; in assay [9], more than 100 µg/mL; in [10] it was 100 µg/mL (≈ 189 µM); in [11], 100 µg/mL (≈ 189 µM); in assay [12], 50 µg/mL (≈ 94.7 µM).
For `C=C/C(C)=C\[C@]1(C)C=C(C)[C@H]2[C@@H]3C[C@H](C)C[C@H](C)[C@H]3[C@H]3Oc4ccc(cc4)C[C@@H]4C(=O)NC(=O)[C@H]4C(=O)[C@@H]1[C@@H]32`, the 50% inhibitory concentration (IC50) in assay [6] was found to be 35 µM; in assay [7], 73 µM. The MIC in assay [8] was more than 100 µg/mL; in assay [9], more than 100 µg/mL; in [10], 100 µg/mL (≈ 189 µM); in assay [11], 100 µg/mL (≈ 189 µM); in [12], 50 µg/mL (≈ 94.7 µM).
For `CC1=C[C@@]2(C)C(=C(C)[C@H]3[C@@H]4C[C@H](CO)C[C@H](C)[C@H]4[C@H]4Oc5ccc(cc5)C[C@@H]5C(=O)NC(=O)[C@H]5C(=O)[C@H]2[C@@H]43)[C@H]1C`, the IC50 in assay [1] was more than 200 µM; in [2] it was more than 200 µM; in assay [3], more than 200 µM; in assay [4], more than 200 µM; in assay [5], more than 200 µM; in [6], 43 µM. For the same compound, the IC50 in assay [7] is more than 80 µM. Besides, the MIC in assay [8] and in assay [9] was more than 100 µg/mL throughout.
With `CC1=C2[C@@H](C)[C@@]3(C)O[C@H]3[C@]2(C)[C@H]2C(=O)[C@]34O[C@H]3[C@](O)(Cc3ccc(cc3)O[C@@H]3[C@H]5[C@@H](C[C@H](C)C[C@@H]5C)[C@H]1[C@H]32)NC4=O`, the IC50 in assay [1] is 42 µM; in assay [2], more than 200 µM; in assay [3], more than 200 µM; in [5], more than 200 µM; in assay [6], 33 µM; in assay [7], 67 µM. The MIC in [8] was 13 µg/mL (≈ 23.2 µM); in [9], more than 100 µg/mL; in assay [10] it was 100 µg/mL (≈ 179 µM); in assay [11], 100 µg/mL (≈ 179 µM); in assay [12], 100 µg/mL (≈ 179 µM); in [13], 100 µg/mL (≈ 179 µM). Besides, the minimal inhibitory concentration (MIC) in [14] came to 100 µg/mL (≈ 179 µM).
